Reference: the supplement of paper PMC10307832

What was measured:
Test in all cases: relative viability (nuclei count vs DMSO), 5 days (fraction); higher = more cells survive
RAF265 + Olaparib = compound: Cn1c(Nc2ccc(C(F)(F)F)cc2)nc2cc(Oc3ccnc(-c4ncc(C(F)(F)F)[nH]4)c3)ccc21 [RAF265] + O=C(c1cc(Cc2n[nH]c(=O)c3ccccc23)ccc1F)N1CCN(C(=O)C2CC2)CC1 [Olaparib] (partner 8 µM)
Method in brief: (§1)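 Values are medians from duplicate plates. Each reflects relative viability, defined as the nuclei count of treated wells over that of vehicle wells. Lung cancer cell lines in 1536-well plates were pin-tool dosed one day after seeding with one drug alone or with a fixed anchor-drug dose plus five library-drug doses (not always all listed) in √10 steps, then fixed, stained and imaged at 4× after 5 days.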

IPA-3 + AZD7762 = compound: C1=CC=C2C(=C1)C=CC(=C2SSC3=C(C=CC4=CC=CC=C43)O)O [IPA-3] + NC(=O)Nc1cc(-c2cccc(F)c2)sc1C(=O)N[C@H]1CCCNC1 [AZD7762] (partner 0.2 µM)
Method in brief: as §1

IPA-3 + Lapatinib = compound: C1=CC=C2C(=C1)C=CC(=C2SSC3=C(C=CC4=CC=CC=C43)O)O [IPA-3] + CS(=O)(=O)CCNCc1ccc(-c2ccc3ncnc(Nc4ccc(OCc5cccc(F)c5)c(Cl)c4)c3c2)o1 [Lapatinib] (partner 2 µM)
Method in brief: as §1

RAF265 + Trametinib = compound: Cn1c(Nc2ccc(C(F)(F)F)cc2)nc2cc(Oc3ccnc(-c4ncc(C(F)(F)F)[nH]4)c3)ccc21 [RAF265] + CC(=O)Nc1cccc(-n2c(=O)n(C3CC3)c(=O)c3c(Nc4ccc(I)cc4F)n(C)c(=O)c(C)c32)c1 [Trametinib] (partner 0.02 µM)
Method in brief: as §1

| Cell Line | relative viability (RAF265 + Olaparib; first compound 0.01 µM) | relative viability (RAF265 + Olaparib; first compound 0.03162 µM) | relative viability (RAF265 + Olaparib; first compound 0.1 µM) | relative viability (RAF265 + Olaparib; first compound 0.3162 µM) | relative viability (RAF265 + Olaparib; first compound 1 µM) | relative viability (IPA-3 + AZD7762; first compound 0.2 µM) | relative viability (IPA-3 + AZD7762; first compound 0.6325 µM) | relative viability (IPA-3 + AZD7762; first compound 2 µM) | relative viability (IPA-3 + AZD7762; first compound 6.325 µM) | relative viability (IPA-3 + AZD7762; first compound 20 µM) | relative viability (IPA-3 + Lapatinib; first compound 0.2 µM) | relative viability (IPA-3 + Lapatinib; first compound 0.6325 µM) | relative viability (IPA-3 + Lapatinib; first compound 2 µM) | relative viability (IPA-3 + Lapatinib; first compound 6.325 µM) | relative viability (IPA-3 + Lapatinib; first compound 20 µM) | relative viability (RAF265 + Trametinib; first compound 0.01 µM) | relative viability (RAF265 + Trametinib; first compound 0.03162 µM) | relative viability (RAF265 + Trametinib; first compound 0.1 µM) | relative viability (RAF265 + Trametinib; first compound 0.3162 µM) | relative viability (RAF265 + Trametinib; first compound 1 µM) |
| --- | --- | --- | --- | --- | --- | --- | --- | --- | --- | --- | --- | --- | --- | --- | --- | --- | --- | --- | --- | --- |
| 201T | 0.839 | 0.804 | 0.887 | 0.824 | 0.828 | 0.641 | 0.584 | 0.724 | 0.699 | 0.828 | 1.06 | 1.05 | 1.02 | 1.04 | 1.07 | 0.781 | 0.696 | 0.717 | 0.748 | 0.716 |
| A549 | 0.41 | 0.367 | 0.404 | 0.0957 | 0.0721 |  |  |  |  |  | 1.07 | 0.897 | 1.01 | 1 | 0.981 |  |  |  |  |  |
| A-427 | 0.831 | 0.604 | 0.712 | 0.459 | 0.29 | 0.902 | 0.701 | 0.731 | 0.706 | 0.772 | 1.17 | 0.997 | 0.981 | 1.09 | 1.2 | 0.905 | 0.507 | 0.592 | 0.403 | 0.198 |
| ABC-1 | 0.919 | 0.649 | 0.952 | 1.07 | 0.791 | 0.888 | 0.766 | 0.737 | 0.992 | 0.965 | 1.1 | 1.06 | 1.23 | 1.37 | 1.29 |  |  |  |  |  |
| BEN | 1.04 | 1.09 | 1.16 | 1.19 | 0.846 | 0.726 | 0.656 | 0.801 | 0.767 | 0.672 | 0.749 | 0.673 | 0.832 | 0.735 | 0.677 | 1.12 | 1.25 | 1.05 | 1.17 | 0.908 |
| CAL-12T | 0.84 | 0.645 | 0.677 | 0.592 | 0.593 | 0.634 | 0.662 | 0.661 | 0.629 | 0.686 | 0.919 | 0.651 | 0.761 | 0.643 | 0.756 | 0.334 | 0.296 | 0.273 | 0.209 | 0.333 |
| COR-L23 | 0.395 | 0.329 | 0.305 | 0.307 | 0.184 |  |  |  |  |  | 1.09 | 0.985 | 1.01 | 1.02 | 0.988 | 0.684 | 0.444 | 0.331 | 0.247 | 0.207 |
| COR-L 105 | 0.727 | 0.618 | 0.703 | 0.772 | 0.485 |  |  |  |  |  | 0.384 | 0.374 | 0.359 | 0.325 | 0.304 | 0.47 | 0.428 | 0.429 | 0.38 | 0.348 |
| Calu-6 | 0.6 | 0.591 | 0.528 | 0.442 | 0.255 |  |  |  |  |  | 1.15 | 0.958 | 1.05 | 1.01 | 1.05 |  |  |  |  |  |
| ChaGo-K-1 | 0.411 | 0.429 | 0.464 | 0.422 | 0.371 | 0.986 | 0.908 | 0.859 | 0.952 | 0.946 |  |  |  |  |  | 0.903 | 0.965 | 0.859 | 0.776 | 0.632 |
| EBC-1 | 0.721 | 0.64 | 0.639 | 0.586 | 0.432 |  |  |  |  |  | 0.191 | 0.223 | 0.199 | 0.217 | 0.25 |  |  |  |  |  |
| EKVX | 0.806 | 0.866 | 0.966 | 0.646 | 0.653 | 0.858 | 0.708 | 0.72 | 0.654 | 0.744 | 0.198 | 0.201 | 0.204 | 0.225 | 0.217 | 0.387 | 0.385 | 0.417 | 0.217 | 0.277 |
| EMC-BAC-2 | 0.576 | 0.43 | 0.407 | 0.371 | 0.167 | 1.15 | 1.17 | 1.12 | 1.08 | 1.16 | 0.905 | 0.92 | 0.88 | 0.95 | 0.992 | 0.977 | 0.857 | 0.85 | 0.62 | 0.313 |
| EPLC-272H | 0.685 | 0.499 | 0.428 | 0.209 | 0.161 | 0.185 | 0.204 | 0.218 | 0.234 | 0.16 | 1.01 | 1.01 | 0.915 | 0.881 | 1.04 | 0.28 | 0.287 | 0.3 | 0.204 | 0.205 |
| H3255 | 0.589 | 0.568 | 0.538 |  | 0.454 | 1.03 | 0.919 | 0.865 | 0.912 | 1 | 0.213 | 0.277 | 0.184 | 0.2 | 0.23 | 0.719 | 0.585 | 0.657 | 0.271 | 0.458 |
| HARA | 0.859 | 0.871 | 0.812 | 0.65 | 0.438 | 0.341 | 0.324 | 0.339 | 1.04 | 0.273 | 0.764 | 0.659 | 0.57 | 0.793 | 0.74 | 0.771 | 0.484 | 0.673 | 0.353 | 0.308 |
| HCC-15 | 0.837 | 0.647 | 0.656 | 0.608 | 0.43 | 1.48 | 1.29 | 1.18 | 1.18 | 1.37 | 1.08 | 0.77 | 0.806 | 0.868 | 0.958 | 0.346 | 0.403 | 0.379 | 0.338 | 0.21 |
| HCC-44 | 0.977 | 0.985 | 0.998 | 0.984 | 1.01 | 0.963 | 0.998 | 1.02 | 1 | 0.907 | 0.995 | 1.02 | 1.05 | 0.883 | 1.03 | 0.938 | 1.02 | 1.08 | 1.01 | 0.966 |
